Source: patent US20230085307A1, “PYRIDAZINONE COMPOUND AND HERBICIDE” (NISSAN CHEMICAL CORPORATION, priority 2019, published 2023)

What was measured:
[1] = test system: green foxtail; test: Test Example 5: herbicidal effect by foliage application, plastic box (Table 20, symbol G); format: in vivo, green foxtail (Setaria viridis); conditions: foliage application, three weeks after application; for herbicidal effect grade, G: green foxtail: 320 g/ha
Outline: (§1)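 Post-emergence foliar test in sterilized diluvial soil. Compound applied as water-diluted emulsion at a predetermined rate to 14-day-old plants; evaluation at three weeks.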

[2] = test system: rice flat sedge; test: Test Example 3: herbicidal effect by foliage application, Wagner pot (Table 18, symbol E); format: in vivo, rice flat sedge (Cyperus iria); conditions: 320 g/ha
Outline: (§2)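 Plants were sown in alluvial soil held under 0.1–0.5 cm standing water and grown 14 days in a greenhouse at 25–30 °C. An emulsifiable formulation, water-diluted to the set dose, was then sprayed onto the foliage, and effects were scored three weeks later using previously defined criteria.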

[3] = test system: windgrass; test: Test Example 5: herbicidal effect by foliage application, plastic box (Table 20, symbol L); format: in vivo, windgrass (Apera spica-venti); conditions: foliage application, three weeks after application; for herbicidal effect grade, L: windgrass: 320 g/ha
Outline: as §1

[4] = test system: velvetleaf; test: Test Example 4: herbicidal effect by soil treatment (Table 19, symbol M); format: in vivo, velvetleaf (Abutilon theophrasti); conditions: amount of applied herbicide 320 g/ha
Outline: (§3)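 Emulsion of test compound, water-diluted to predetermined amount, sprayed on soil after sowing (seed depth ~1.5 cm, sterilized diluvial soil). Greenhouse, 25–30° C. Effect graded at three weeks post-spray.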

[5] = test system: chickweed; test: Test Example 5: herbicidal effect by foliage application, plastic box (Table 20, symbol P); format: in vivo, common chickweed (Stellaria media); conditions: foliage application, three weeks after application; for herbicidal effect grade, P: chickweed: 320 g/ha
Outline: as §1

[6] = test system: wild oat; test: Test Example 4: herbicidal effect by soil treatment (Table 19, symbol I); format: in vivo, wild oat (Avena fatua); conditions: amount of applied herbicide 320 g/ha
Outline: as §3

[7] = test system: Chinese sprangletop; test: Test Example 3: herbicidal effect by foliage application, Wagner pot (Table 18, symbol D); format: in vivo, chinese sprangletop (Leptochloa chinensis); conditions: 320 g/ha
Outline: as §2

[8] = test system: oval-leafed pondweed; test: Test Example 1: herbicidal activity, application before weed generation under submerged conditions (Table 16, symbol C); format: in vivo, oval-leafed pondweed (Monochoria vaginalis); conditions: 320 g/ha applied herbicide
Outline: (§4)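 Submerged Wagner pots (alluvial soil, 4 cm water) sown with weed seeds and planted with 2.5-leaf rice seedlings; emulsifiable concentrate diluted in water applied to water surface on sowing day. Held in greenhouse at 25-30 °C; injury scored 0-5 by herbicidal rate after three weeks.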

[9] = test system: blackgrass; test: Test Example 5: herbicidal effect by foliage application, plastic box (Table 20, symbol J); format: in vivo, blackgrass (Alopecurus myosuroides); conditions: foliage application, three weeks after application; for herbicidal effect grade, J: blackgrass: 320 g/ha
Outline: as §1

[10] = test system: wild oat; test: Test Example 5: herbicidal effect by foliage application, plastic box (Table 20, symbol I); format: in vivo, wild oat (Avena fatua); conditions: foliage application, three weeks after application; for herbicidal effect grade, I: wild oat: 320 g/ha
Outline: as §1

[11] = test system: windgrass; test: Test Example 4: herbicidal effect by soil treatment (Table 19, symbol L); format: in vivo, windgrass (Apera spica-venti); conditions: amount of applied herbicide 320 g/ha
Outline: as §3

[12] = test system: lambsquarters; test: Test Example 4: herbicidal effect by soil treatment (Table 19, symbol O); format: in vivo, lambsquarters (Chenopodium album); conditions: amount of applied herbicide 320 g/ha
Outline: as §3

[13] = test system: late watergrass; test: Test Example 2: herbicidal activity, application during weed generation under submerged conditions (Table 17, symbol A); format: in vivo, late watergrass (Echinochloa oryzicola); conditions: AAH 320 g/ha; application during weed generation, submerged conditions
Outline: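 Herbicide emulsion, diluted with water to the chosen amount, is applied onto 4 cm floodwater over alluvial soil where the weeds were co-sown and raised at 25–30° C. Application timing: 1–2 leaves. Assessment: three weeks afterwards.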

[14] = test system: barnyard grass; test: Test Example 3: herbicidal effect by foliage application, Wagner pot (Table 18, symbol H); format: in vivo, barnyard grass (Echinochloa crus-galli); conditions: 320 g/ha
Outline: as §2

[15] = test system: Japanese bulrush; test: Test Example 1: herbicidal activity, application before weed generation under submerged conditions (Table 16, symbol B); format: in vivo, Japanese bulrush (Schoenoplectus juncoides); conditions: 320 g/ha applied herbicide
Outline: as §4

[16] = test system: barnyard grass; test: Test Example 4: herbicidal effect by soil treatment (Table 19, symbol H); format: in vivo, barnyard grass (Echinochloa crus-galli); conditions: amount of applied herbicide 320 g/ha
Outline: as §3

[17] = test system: velvetleaf; test: Test Example 5: herbicidal effect by foliage application, plastic box (Table 20, symbol M); format: in vivo, velvetleaf (Abutilon theophrasti); conditions: foliage application, three weeks after application; for herbicidal effect grade, M: velvetleaf: 320 g/ha
Outline: as §1

SMILES | herbicidal effect grade, G: green foxtail [1] | herbicidal effect on E (rice flat sedge), rating 0-5 [2] | herbicidal effect grade, L: windgrass [3] | herbicidal effect rating, M: velvetleaf [4] | herbicidal effect grade, P: chickweed [5] | herbicidal effect rating, I: wild oat [6] | herbicidal effect on D (Chinese sprangletop), rating 0-5 [7] | Herbicidal effect on C: oval-leafed pondweed (grade 0-5) [8] | herbicidal effect grade, J: blackgrass [9] | herbicidal effect grade, I: wild oat [10] | herbicidal effect rating, L: windgrass [11] | herbicidal effect rating, O: lambsquarters [12] | herbicidal effect rating, A: late watergrass [13] | herbicidal effect on H (barnyard grass), rating 0-5 [14] | Herbicidal effect on B: Japanese bulrush (grade 0-5) [15] | herbicidal effect rating, H: barnyard grass [16] | herbicidal effect grade, M: velvetleaf [17] | other results
Cc1nn(C)c(=O)c(-c2c(-c3ccccc3OC(F)(F)F)sc3ccccc23)c1O [1-030] | 5 (Herbicidal rate of 90% or more (almost completely withered)) | 4 (Herbicidal rate of 70% or more and less than 90%) | 5 (Herbicidal rate of 90% or more (almost completely withered)) | 3 (Herbicidal rate of 40% or more and less than 70%) | 5 (Herbicidal rate of 90% or more (almost completely withered)) | 1 (Herbicidal rate of 5% or more and less than 20%) | 3 (Herbicidal rate of 40% or more and less than 70%) | 4 (Herbicidal rate of 70% or more and less than 90%) | 5 (Herbicidal rate of 90% or more (almost completely withered)) | 4 (Herbicidal rate of 70% or more and less than 90%) | 5 (Herbicidal rate of 90% or more (almost completely withered)) | 5 (Herbicidal rate of 90% or more (almost completely withered)) | 1 (Herbicidal rate of 5% or more and less than 20%) | 5 (Herbicidal rate of 90% or more (almost completely withered)) | 5 (Herbicidal rate of 90% or more (almost completely withered)) | 4 (Herbicidal rate of 70% or more and less than 90%) | 5 (Herbicidal rate of 90% or more (almost completely withered)) | –
CCCC(=O)Oc1c(C)nn(C)c(=O)c1-c1c(-c2ccc(C(C)=NOC)cc2)sc2ccccc12 [1-044] | 5 (Herbicidal rate of 90% or more (almost completely withered)) | 5 (Herbicidal rate of 90% or more (almost completely withered)) | 3 (Herbicidal rate of 40% or more and less than 70%) | 0 (Herbicidal rate of 5% or less (almost no effect)) | 5 (Herbicidal rate of 90% or more (almost completely withered)) | 0 (Herbicidal rate of 5% or less (almost no effect)) | 4 (Herbicidal rate of 70% or more and less than 90%) | 5 (Herbicidal rate of 90% or more (almost completely withered)) | 3 (Herbicidal rate of 40% or more and less than 70%) | 4 (Herbicidal rate of 70% or more and less than 90%) | 0 (Herbicidal rate of 5% or less (almost no effect)) | 4 (Herbicidal rate of 70% or more and less than 90%) | 4 (Herbicidal rate of 70% or more and less than 90%) | 4 (Herbicidal rate of 70% or more and less than 90%) | 5 (Herbicidal rate of 90% or more (almost completely withered)) | 0 (Herbicidal rate of 5% or less (almost no effect)) | 5 (Herbicidal rate of 90% or more (almost completely withered)) | –
CCOc1cc(F)ccc1-c1sc2ccccc2c1-c1c(O)c(C)nn(C)c1=O [1-061] | 5 (Herbicidal rate of 90% or more (almost completely withered)) | 5 (Herbicidal rate of 90% or more (almost completely withered)) | 5 (Herbicidal rate of 90% or more (almost completely withered)) | 0 (Herbicidal rate of 5% or less (almost no effect)) | 5 (Herbicidal rate of 90% or more (almost completely withered)) | 3 (Herbicidal rate of 40% or more and less than 70%) | 4 (Herbicidal rate of 70% or more and less than 90%) | 3 (Herbicidal rate of 40% or more and less than 70%) | 5 (Herbicidal rate of 90% or more (almost completely withered)) | 5 (Herbicidal rate of 90% or more (almost completely withered)) | 5 (Herbicidal rate of 90% or more (almost completely withered)) | 3 (Herbicidal rate of 40% or more and less than 70%) | 0 (Herbicidal rate of 5% or less (almost no effect)) | 5 (Herbicidal rate of 90% or more (almost completely withered)) | 3 (Herbicidal rate of 40% or more and less than 70%) | 4 (Herbicidal rate of 70% or more and less than 90%) | 5 (Herbicidal rate of 90% or more (almost completely withered)) | –
CCCC(=O)Oc1c(C)nn(C)c(=O)c1-c1c(-c2ccc(OC)c(OC)c2)sc2ccccc12 [1-073] | 5 (Herbicidal rate of 90% or more (almost completely withered)) | 5 (Herbicidal rate of 90% or more (almost completely withered)) | 0 (Herbicidal rate of 5% or less (almost no effect)) | 4 (Herbicidal rate of 70% or more and less than 90%) | 5 (Herbicidal rate of 90% or more (almost completely withered)) | 2 (Herbicidal rate of 20% or more and less than 40%) | 3 (Herbicidal rate of 40% or more and less than 70%) | 0 (Herbicidal rate of 5% or less (almost no effect)) | 4 (Herbicidal rate of 70% or more and less than 90%) | 2 (Herbicidal rate of 20% or more and less than 40%) | 1 (Herbicidal rate of 5% or more and less than 20%) | 5 (Herbicidal rate of 90% or more (almost completely withered)) | 4 (Herbicidal rate of 70% or more and less than 90%) | 5 (Herbicidal rate of 90% or more (almost completely withered)) | 4 (Herbicidal rate of 70% or more and less than 90%) | 4 (Herbicidal rate of 70% or more and less than 90%) | 5 (Herbicidal rate of 90% or more (almost completely withered)) | –
CCCC(=O)Oc1c(C)nn(C)c(=O)c1-c1c(-c2ccc3c(c2)OCCO3)sc2ccccc12 [1-090] | – | 5 (Herbicidal rate of 90% or more (almost completely withered)) | – | 0 (Herbicidal rate of 5% or less (almost no effect)) | – | 0 (Herbicidal rate of 5% or less (almost no effect)) | 1 (Herbicidal rate of 5% or more and less than 20%) | 5 (Herbicidal rate of 90% or more (almost completely withered)) | – | – | 0 (Herbicidal rate of 5% or less (almost no effect)) | 2 (Herbicidal rate of 20% or more and less than 40%) | 4 (Herbicidal rate of 70% or more and less than 90%) | 5 (Herbicidal rate of 90% or more (almost completely withered)) | 4 (Herbicidal rate of 70% or more and less than 90%) | 1 (Herbicidal rate of 5% or more and less than 20%) | – | G: green foxtail, herbicidal effect ([1]; AAH 320 g/ha): 5 (Herbicidal rate of 90% or more (almost completely withered)); L: windgrass, herbicidal effect ([3]; AAH 320 g/ha): 0 (Herbicidal rate of 5% or less (almost no effect)); P: chickweed, herbicidal effect ([5]; AAH 320 g/ha): 4 (Herbicidal rate of 70% or more and less than 90%); J: blackgrass, herbicidal effect ([9]; AAH 320 g/ha): 2 (Herbicidal rate of 20% or more and less than 40%); I: wild oat, herbicidal effect ([10]; AAH 320 g/ha): 0 (Herbicidal rate of 5% or less (almost no effect)); M: velvetleaf, herbicidal effect ([17]; AAH 320 g/ha): 4 (Herbicidal rate of 70% or more and less than 90%)
